Measurements taken from patent US20260226493A1, “HERBICIDE RESISTANT PLANTS” (SYNGENTA CROP PROTECTION AG, priority 2023, published 2026).

Legend:
Assay in all cases: BIO3-BIO1 mutant enzyme activity in the presence of herbicide, percentage inhibition (fluorometric DAPA assay)
Type in all cases: biochemical
Conditions in all cases: read-out: percentage inhibition
[1] = molecular target: T1, Arabidopsis thaliana BIO3-BIO1 (BioDA) mutants (Arabidopsis thaliana, UniProt B0F481, F370L)
T1 construct: with the predicted N-terminal mitochondrial transit peptide removed; 6xHis-tag (N); thrombin cleavage site (N); made in house; host or cells: E. coli BL21 (DE3) bioA
T1 sequence (B0F481 23-833 F370L): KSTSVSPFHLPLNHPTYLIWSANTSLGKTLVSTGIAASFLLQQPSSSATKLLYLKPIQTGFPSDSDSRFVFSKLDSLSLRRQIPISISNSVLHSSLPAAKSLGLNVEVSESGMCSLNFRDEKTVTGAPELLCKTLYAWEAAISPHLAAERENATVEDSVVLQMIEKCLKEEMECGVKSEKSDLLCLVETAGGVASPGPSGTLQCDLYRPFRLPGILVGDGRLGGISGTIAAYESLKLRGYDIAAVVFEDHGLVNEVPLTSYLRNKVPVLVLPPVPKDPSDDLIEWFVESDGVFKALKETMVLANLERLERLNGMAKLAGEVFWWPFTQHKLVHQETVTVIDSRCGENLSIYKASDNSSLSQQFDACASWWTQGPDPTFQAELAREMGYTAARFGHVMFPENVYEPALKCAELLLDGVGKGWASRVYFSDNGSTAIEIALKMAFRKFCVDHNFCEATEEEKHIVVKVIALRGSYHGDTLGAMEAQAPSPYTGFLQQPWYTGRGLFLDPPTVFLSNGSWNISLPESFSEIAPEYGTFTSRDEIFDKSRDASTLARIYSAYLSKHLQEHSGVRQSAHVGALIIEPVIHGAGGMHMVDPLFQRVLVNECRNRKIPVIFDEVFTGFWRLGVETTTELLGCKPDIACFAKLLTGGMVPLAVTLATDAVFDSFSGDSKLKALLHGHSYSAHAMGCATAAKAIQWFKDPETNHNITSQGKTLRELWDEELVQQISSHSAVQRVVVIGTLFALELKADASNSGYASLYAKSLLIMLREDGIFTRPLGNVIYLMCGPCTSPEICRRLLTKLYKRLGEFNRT
Method in brief: (§1)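 His-tagged Arabidopsis BIO3-BIO1 mutants, expressed in E. coli and purified by IMAC and SEC, were preincubated at 50 nM with herbicide for 10 min at 20 °C in EPPS pH 8.6 with pyridoxal phosphate. Reaction with 100 μM spermidine and 20 μM KAPA ran 75 min at 20 °C; DAPA was derivatised with o-phthalaldehyde and read at ex 410/em 470 nm. […].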

[2] = molecular target: T2, Arabidopsis thaliana BIO3-BIO1 (BioDA) mutants (Arabidopsis thaliana, UniProt B0F481, A609F)
T2 construct: with the predicted N-terminal mitochondrial transit peptide removed; 6xHis-tag (N); thrombin cleavage site (N); made in house; host or cells: E. coli BL21 (DE3) bioA
T2 sequence (B0F481 23-833 A609F): as the sequence (B0F481 23-833 F370L) above, with L348F, A587F counted along it
Method in brief: as §1

[3] = molecular target: T3, Arabidopsis thaliana BIO3-BIO1 (BioDA) mutants (Arabidopsis thaliana, UniProt B0F481, F348T)
T3 construct: with the predicted N-terminal mitochondrial transit peptide removed; 6xHis-tag (N); thrombin cleavage site (N); made in house; host or cells: E. coli BL21 (DE3) bioA
T3 sequence (B0F481 23-833 F348T): as the sequence (B0F481 23-833 F370L) above, with F326T, L348F counted along it
Method in brief: as §1

[4] = molecular target: T4, Arabidopsis thaliana BIO3-BIO1 (BioDA) mutants (Arabidopsis thaliana, UniProt B0F481, P421W)
T4 construct: with the predicted N-terminal mitochondrial transit peptide removed; 6xHis-tag (N); thrombin cleavage site (N); made in house; host or cells: E. coli BL21 (DE3) bioA
T4 sequence (B0F481 23-833 P421W): as the sequence (B0F481 23-833 F370L) above, with L348F, P399W counted along it
Method in brief: as §1

[5] = molecular target: T5, Arabidopsis thaliana BIO3-BIO1 (BioDA) mutants (Arabidopsis thaliana, UniProt B0F481, T512I)
T5 construct: with the predicted N-terminal mitochondrial transit peptide removed; 6xHis-tag (N); thrombin cleavage site (N); made in house; host or cells: E. coli BL21 (DE3) bioA
T5 sequence (B0F481 23-833 T512I): as the sequence (B0F481 23-833 F370L) above, with L348F, T490I counted along it
Method in brief: as §1

[6] = molecular target: T6, Arabidopsis thaliana BIO3-BIO1 (BioDA) mutants (Arabidopsis thaliana, UniProt B0F481, V354A)
T6 construct: with the predicted N-terminal mitochondrial transit peptide removed; 6xHis-tag (N); thrombin cleavage site (N); made in house; host or cells: E. coli BL21 (DE3) bioA
T6 sequence (B0F481 23-833 V354A): as the sequence (B0F481 23-833 F370L) above, with V332A, L348F counted along it
Method in brief: as §1

[7] = molecular target: T7, Arabidopsis thaliana BIO3-BIO1 (BioDA) mutants (Arabidopsis thaliana, UniProt B0F481, Y511V)
T7 construct: with the predicted N-terminal mitochondrial transit peptide removed; 6xHis-tag (N); thrombin cleavage site (N); made in house; host or cells: E. coli BL21 (DE3) bioA
T7 sequence (B0F481 23-833 Y511V): as the sequence (B0F481 23-833 F370L) above, with L348F, Y489V counted along it
Method in brief: as §1

[8] = molecular target: T8, Arabidopsis thaliana BIO3-BIO1 (BioDA) mutants (Arabidopsis thaliana, UniProt B0F481, S509A)
T8 construct: with the predicted N-terminal mitochondrial transit peptide removed; 6xHis-tag (N); thrombin cleavage site (N); made in house; host or cells: E. coli BL21 (DE3) bioA
T8 sequence (B0F481 23-833 S509A): as the sequence (B0F481 23-833 F370L) above, with L348F, S487A counted along it
Method in brief: as §1

[9] = molecular target: T9, Arabidopsis thaliana BIO3-BIO1 (BioDA) mutants (Arabidopsis thaliana, UniProt B0F481, A609T)
T9 construct: with the predicted N-terminal mitochondrial transit peptide removed; 6xHis-tag (N); thrombin cleavage site (N); made in house; host or cells: E. coli BL21 (DE3) bioA
T9 sequence (B0F481 23-833 A609T): as the sequence (B0F481 23-833 F370L) above, with L348F, A587T counted along it
Method in brief: as §1

[10] = molecular target: T10, Arabidopsis thaliana BIO3-BIO1 (BioDA) mutants (Arabidopsis thaliana, UniProt B0F481, R797Q)
T10 construct: with the predicted N-terminal mitochondrial transit peptide removed; 6xHis-tag (N); thrombin cleavage site (N); made in house; host or cells: E. coli BL21 (DE3) bioA
T10 sequence (B0F481 23-833 R797Q): as the sequence (B0F481 23-833 F370L) above, with L348F, R775Q counted along it
Method in brief: as §1

[11] = molecular target: T11, Arabidopsis thaliana BIO3-BIO1 (BioDA) mutants (Arabidopsis thaliana, UniProt B0F481, L786S)
T11 construct: with the predicted N-terminal mitochondrial transit peptide removed; 6xHis-tag (N); thrombin cleavage site (N); made in house; host or cells: E. coli BL21 (DE3) bioA
T11 sequence (B0F481 23-833 L786S): as the sequence (B0F481 23-833 F370L) above, with L348F, L764S counted along it
Method in brief: as §1

[12] = molecular target: T12, Arabidopsis thaliana BIO3-BIO1 (BioDA) mutants (Arabidopsis thaliana, UniProt B0F481, T512R)
T12 construct: with the predicted N-terminal mitochondrial transit peptide removed; 6xHis-tag (N); thrombin cleavage site (N); made in house; host or cells: E. coli BL21 (DE3) bioA
T12 sequence (B0F481 23-833 T512R): as the sequence (B0F481 23-833 F370L) above, with L348F, T490R counted along it
Method in brief: as §1

Structure (SMILES) | inhibition at 1 µM [1] [%] | inhibition at 1 µM [2] [%] | inhibition at 1 µM [3] [%] | inhibition at 1 µM [4] [%] | inhibition at 1 µM [5] [%] | inhibition at 1 µM [6] [%] | inhibition at 1 µM [7] [%] | inhibition at 1 µM [8] [%] | inhibition at 1 µM [9] [%] | inhibition at 1 µM [10] [%] | inhibition at 1 µM [11] [%] | inhibition at 1 µM [12] [%] | inhibition at 0.2 µM [1] [%] | inhibition at 5 µM [1] [%] | inhibition at 0.2 µM [2] [%] | inhibition at 5 µM [2] [%] | inhibition at 0.2 µM [3] [%] | inhibition at 5 µM [3] [%] | inhibition at 0.2 µM [4] [%] | inhibition at 5 µM [4] [%] | further results
CCOC(=O)c1nn(-c2ccc3c(c2)OC(F)(F)C(F)(F)O3)c2cccc(C(C)=O)c2c1=O [Compound A, ethyl 5-acetyl-4-oxo-1-(2,2,3,3-tetrafluoro-1,4-benzodioxin-6-yl)cinnoline-3-carboxylate] | 15 | 6 | 0 | 21 | 37 | 9 | 45 | 0 | 0 | 35 | 80 | 82 | – | – | – | – | – | – | – | – | –
CCn1c(C)c(-c2ccc(F)cc2F)c(=O)c(C(=O)O)c1-c1ccc(Cl)c(Cl)c1 [Compound C, 2-(3,4-dichlorophenyl)-5-(2,4-difluorophenyl)-1-ethyl-6-methyl-4-oxo-pyridine-3-carboxylic acid] | 24 | 5 | 4 | 15 | 96 | 26 | 94 | 63 | 37 | 32 | 84 | 95 | 19 | 82 | 5 | 20 | 0 | 0 | 0 | 37 | inhibition at 0.2 µM [5]: 60%; inhibition at 5 µM [5]: 99%; inhibition at 0.2 µM [6]: 0%; inhibition at 5 µM [6]: 75%; inhibition at 0.2 µM [7]: 28%; inhibition at 5 µM [7]: 97%; inhibition at 0.2 µM [8]: 0%; inhibition at 5 µM [8]: 95%; inhibition at 0.2 µM [9]: 12%; inhibition at 5 µM [9]: 64%; inhibition at 0.2 µM [10]: 7%; inhibition at 5 µM [10]: 52%; inhibition at 0.2 µM [11]: 26%; inhibition at 5 µM [11]: 98%; inhibition at 0.2 µM [12]: 74%; inhibition at 5 µM [12]: 99%
CCn1c(Cn2ccc(C(F)(F)F)n2)cc(=O)c(C(=O)O)c1-c1ccc(Cl)c(Cl)c1 [Compound L, 2-(3,4-dichlorophenyl)-1-ethyl-4-oxo-6-[[3-(trifluoromethyl)pyrazol-1-yl]methyl]pyridine-3-carboxylic acid] | – | – | – | – | – | – | – | – | – | – | – | – | – | – | – | – | – | – | – | – | inhibition at 0.01 µM [1]: 0%; inhibition at 0.075 µM [1]: 14%; inhibition at 0.5 µM [1]: 38%; inhibition at 0.01 µM [2]: 10%; inhibition at 0.075 µM [2]: 0%; inhibition at 0.5 µM [2]: 16%; inhibition at 0.01 µM [3]: 1%; inhibition at 0.075 µM [3]: 3%; inhibition at 0.5 µM [3]: 7%; inhibition at 0.01 µM [4]: 0%; inhibition at 0.075 µM [4]: 8%; inhibition at 0.5 µM [4]: 27%; inhibition at 0.01 µM [9]: 10%; inhibition at 0.075 µM [9]: 34%; inhibition at 0.5 µM [9]: 12%; inhibition at 0.01 µM [11]: 11%; inhibition at 0.075 µM [11]: 31%; inhibition at 0.5 µM [11]: 93%
CCn1c(-c2ccc(Cl)c(Cl)c2)c(C(=O)O)c(=O)c2cc(F)ccc21 [Compound M, 2-(3,4-dichlorophenyl)-1-ethyl-6-fluoro-4-oxo-quinoline-3-carboxylic acid] | 25 | 26 | 2 | 0 | 85 | 13 | 88 | 33 | 39 | 5 | 81 | 95 | 0 | 80 | 19 | 66 | 15 | 7 | 0 | 18 | inhibition at 0.2 µM [5]: 48%; inhibition at 5 µM [5]: 96%; inhibition at 0.2 µM [6]: 6%; inhibition at 5 µM [6]: 65%; inhibition at 0.2 µM [7]: 33%; inhibition at 5 µM [7]: 99%; inhibition at 0.2 µM [8]: 0%; inhibition at 5 µM [8]: 81%; inhibition at 0.2 µM [9]: 8%; inhibition at 5 µM [9]: 67%; inhibition at 0.2 µM [10]: 0%; inhibition at 5 µM [10]: 30%; inhibition at 0.2 µM [11]: 33%; inhibition at 5 µM [11]: 97%; inhibition at 0.2 µM [12]: 81%; inhibition at 5 µM [12]: 99%
